Experiments:
[1] = target: HDAC5 (Homo sapiens, UniProt Q9UQL6); assay: Deacetylation activity selectivity, HDAC5; format: biochemical
From the text: (§1) Based on the above results, 8a was further investigated in this study. […] To further evaluate the selectivity of 8a for SIRT6, we examined the effect of 8a on the deacetylation activity of other HDAC family members, including HDAC1-HDAC11, SIRT1-SIRT3 and SIRT5. […] Furthermore, to confirm binding of 8a to SIRT6 in cells, we carried out the cellular thermal shift assay (CETSA). The CETSA approach builds on the thermal shift assay concept where ligand binding to its target protein enhances the target protein stability. We observed that the thermal stability of SIRT6 increased after 8a treatment (Figs. 2c, d).

[2] = target: HDAC7 (Homo sapiens, UniProt Q8WUI4); assay: Deacetylation activity selectivity, HDAC7; format: biochemical
Sequence of HDAC7 (Q8WUI4 whole entry): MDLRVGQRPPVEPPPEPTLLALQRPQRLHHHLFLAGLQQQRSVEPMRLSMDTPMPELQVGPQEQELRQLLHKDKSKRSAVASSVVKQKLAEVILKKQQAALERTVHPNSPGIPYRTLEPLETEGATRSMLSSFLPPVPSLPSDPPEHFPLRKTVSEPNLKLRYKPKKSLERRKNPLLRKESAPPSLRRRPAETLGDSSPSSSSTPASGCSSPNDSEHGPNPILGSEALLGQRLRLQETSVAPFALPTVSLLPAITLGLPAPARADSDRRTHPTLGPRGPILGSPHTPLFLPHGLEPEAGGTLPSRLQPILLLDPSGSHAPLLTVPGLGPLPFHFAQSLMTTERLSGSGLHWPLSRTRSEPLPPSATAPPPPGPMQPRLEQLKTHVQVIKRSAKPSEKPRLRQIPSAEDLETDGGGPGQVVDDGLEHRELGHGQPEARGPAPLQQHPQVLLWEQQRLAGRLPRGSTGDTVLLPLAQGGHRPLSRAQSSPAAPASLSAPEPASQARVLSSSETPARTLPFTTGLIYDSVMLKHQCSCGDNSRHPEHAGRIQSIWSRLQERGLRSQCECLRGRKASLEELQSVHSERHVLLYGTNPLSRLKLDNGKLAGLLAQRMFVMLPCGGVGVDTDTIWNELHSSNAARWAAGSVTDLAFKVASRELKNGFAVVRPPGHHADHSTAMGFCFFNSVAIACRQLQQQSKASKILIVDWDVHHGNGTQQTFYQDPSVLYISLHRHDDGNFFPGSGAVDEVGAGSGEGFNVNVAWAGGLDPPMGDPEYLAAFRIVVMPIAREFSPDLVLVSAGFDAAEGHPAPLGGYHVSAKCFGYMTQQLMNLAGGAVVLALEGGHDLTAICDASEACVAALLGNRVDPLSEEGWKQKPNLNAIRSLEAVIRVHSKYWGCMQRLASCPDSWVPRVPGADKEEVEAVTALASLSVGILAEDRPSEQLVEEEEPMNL
From the text: as §1

[3] = target: HDAC10 (Homo sapiens, UniProt Q969S8); assay: Deacetylation activity selectivity, HDAC10; format: biochemical
Sequence of HDAC10 (Q969S8 whole entry, species assumed): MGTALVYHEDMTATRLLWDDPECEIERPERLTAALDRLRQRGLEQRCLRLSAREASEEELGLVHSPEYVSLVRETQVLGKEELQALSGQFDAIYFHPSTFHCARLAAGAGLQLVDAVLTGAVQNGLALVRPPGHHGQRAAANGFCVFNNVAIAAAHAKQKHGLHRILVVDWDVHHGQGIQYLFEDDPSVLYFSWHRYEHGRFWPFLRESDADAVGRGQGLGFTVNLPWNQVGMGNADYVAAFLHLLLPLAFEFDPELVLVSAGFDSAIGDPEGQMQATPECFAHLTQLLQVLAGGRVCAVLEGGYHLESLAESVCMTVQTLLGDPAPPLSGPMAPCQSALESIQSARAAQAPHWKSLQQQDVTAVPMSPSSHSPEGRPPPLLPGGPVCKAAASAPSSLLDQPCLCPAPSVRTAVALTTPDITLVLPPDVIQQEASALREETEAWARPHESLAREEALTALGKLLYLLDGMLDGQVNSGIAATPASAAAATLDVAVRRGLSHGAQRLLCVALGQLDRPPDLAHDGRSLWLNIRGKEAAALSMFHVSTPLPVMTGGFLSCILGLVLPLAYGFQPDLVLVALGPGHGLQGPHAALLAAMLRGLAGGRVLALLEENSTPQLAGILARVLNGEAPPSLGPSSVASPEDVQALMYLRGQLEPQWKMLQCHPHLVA
From the text: as §1

[4] = target: HDAC11 (Homo sapiens, UniProt Q96DB2); assay: Deacetylation activity selectivity, HDAC11; format: biochemical
Sequence of HDAC11 (Q96DB2 whole entry, species assumed): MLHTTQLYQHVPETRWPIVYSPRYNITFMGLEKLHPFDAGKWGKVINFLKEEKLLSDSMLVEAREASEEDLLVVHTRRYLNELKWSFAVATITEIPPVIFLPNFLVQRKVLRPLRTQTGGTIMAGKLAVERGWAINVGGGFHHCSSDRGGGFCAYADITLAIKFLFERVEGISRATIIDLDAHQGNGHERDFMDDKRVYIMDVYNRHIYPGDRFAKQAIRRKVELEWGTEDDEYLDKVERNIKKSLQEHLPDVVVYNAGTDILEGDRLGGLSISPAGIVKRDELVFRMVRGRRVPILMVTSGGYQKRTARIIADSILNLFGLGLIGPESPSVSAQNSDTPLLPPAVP
From the text: as §1

[5] = tested on: H3K9 acetylation (SIRT6 substrate); assay: H3K9 acetylation in Hela cells, western blot; format: cell-based
Procedure: Cells were harvested and lysed in a lysis buffer (solarbio, R0010) supplementing 1 mM PMSF and protease inhibitor (TargetMol, USA). […] Then, the membranes were detected by Tanon 5200 (Tanon, Beijing, China).
To investigate the SIRT6 activity at cellular levels, we examined the acetylation status of H3K9, which is a well-known SIRT6 substrate. […] As these compounds can show violet fluorescence, intracellular localizations of these compounds were evaluated by confocal microscopy.

[6] = tested on: HUVEC cells; assay: MTT cytotoxicity, normal HUVEC cells; format: cell-based; details: 72 h
[7] = tested on: NIT-1 cells; assay: Cell glucose uptake assay, NIT-1; format: cell-based; details: NIT-1, 8a (3.125, 6.25, 12.5 μM) + insulin (100 nM) vs insulin only, 30 min
Procedure: The NIT-1 and β-TC-6 cells were added to the wells of 12-well plates and incubated overnight. Then the culture medium without FBS was incubated for 6 h, and different concentrations of 8a (3.125, 6.25, 12.5 μM), insulin (100 nM) or their combination were added for 30 min. Glucose uptake was determined using a Glucose Uptake Assay Kit (Jiancheng, Nanjing).

[8] = Glucose uptake and insulin secretion in vivo; parameters: species or system C57BL/6 mice; details: mice, 8a 10, 20, 30 mg/kg i.p. + glucose 2 g/kg vs glucose group; short term and long term (2 weeks)
Procedure: Male C57BL/6 mice (18 ± 2 g, 5 weeks old) were randomly divided into four groups with six mice per group. Acute drug toxicity test was performed. Mice were fasted for 6 h, and basal blood glucose and serum insulin levels were measured by using Accu-Check Performa (Roche, Swiss) glucose meter and Mouse Insulin ELISA kit (Solarbio). Compound 8a (10, 20, 30 mg/kg) was intraperitoneally injected for 10 min, followed by glucose (2 g/kg) intraperitoneally injected. The blood glucose concentration was measured at 30 and 60 min after glucose injection, and the serum insulin content of mice was measured at 60 min. Compound 8a was treated every other day for 2 weeks and tested for chronic drug toxicity. According to the above method, the serum glucose and insulin content of mice were measured.

[9] = target: SIRT6 (Homo sapiens, UniProt Q8N6T7); assay: Biolayer interferometry (BLI) binding; parameters: The human full-length SIRT6 gene was inserted into the prokaryotic expression vector (pET-28a (+)); inferred from the pET-28a(+) vector, Ni-NTA purification and Ni-NTA biosensor loading); made in house; host or cells: Escherichia coli BL21 (DE3); details: Octet RED, Ni-NTA biosensors, 25 °C
Sequence of SIRT6 (Q8N6T7 whole entry): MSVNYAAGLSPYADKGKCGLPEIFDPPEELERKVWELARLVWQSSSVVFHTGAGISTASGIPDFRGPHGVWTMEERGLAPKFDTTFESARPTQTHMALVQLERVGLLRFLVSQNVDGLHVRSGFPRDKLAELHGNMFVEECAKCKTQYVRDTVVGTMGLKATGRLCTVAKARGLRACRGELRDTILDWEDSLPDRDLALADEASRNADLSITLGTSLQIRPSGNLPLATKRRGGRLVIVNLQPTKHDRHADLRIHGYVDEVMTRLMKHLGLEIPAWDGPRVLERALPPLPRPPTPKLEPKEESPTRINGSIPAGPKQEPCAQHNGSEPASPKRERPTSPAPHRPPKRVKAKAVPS
Procedure: Binding assays were performed using Ni-NTA biosensors on the Octet® Red96 system (ForteBio, Menlo Park, CA) in 96-well microplates and measuring changes wavelength shift (in nm) over time (s). All steps were carried out at 25 °C with the plate shaking speed of 1000 rpm. The total working volume was 200 μL in 96-well microplate (Greiner Bio-one, Germany). The SIRT6 protein and compounds were diluted with phosphate-buffered saline (PBS, pH 7.4). Ni-NTA biosensors were prewetted for at least 10 min in PBS prior to the assay. Afterwards, the Ni-NTA biosensors were immobilized for 180 s with 200 μL culture containing 20 μg/mL SIRT6. After loading, sensors were washed in PBS buffer for another 120 s and transferred to wells containing different concentrations of compound 8a (0, 12.5, 25, 50, 100 μM) for binding. Finally, the dissociation step was carried out in kinetic buffer for 180 s. The assay data were processed and calculated using the ForteBio Octet RED analysis software.

Sequence of HDAC5 (Q9UQL6 whole entry, species assumed): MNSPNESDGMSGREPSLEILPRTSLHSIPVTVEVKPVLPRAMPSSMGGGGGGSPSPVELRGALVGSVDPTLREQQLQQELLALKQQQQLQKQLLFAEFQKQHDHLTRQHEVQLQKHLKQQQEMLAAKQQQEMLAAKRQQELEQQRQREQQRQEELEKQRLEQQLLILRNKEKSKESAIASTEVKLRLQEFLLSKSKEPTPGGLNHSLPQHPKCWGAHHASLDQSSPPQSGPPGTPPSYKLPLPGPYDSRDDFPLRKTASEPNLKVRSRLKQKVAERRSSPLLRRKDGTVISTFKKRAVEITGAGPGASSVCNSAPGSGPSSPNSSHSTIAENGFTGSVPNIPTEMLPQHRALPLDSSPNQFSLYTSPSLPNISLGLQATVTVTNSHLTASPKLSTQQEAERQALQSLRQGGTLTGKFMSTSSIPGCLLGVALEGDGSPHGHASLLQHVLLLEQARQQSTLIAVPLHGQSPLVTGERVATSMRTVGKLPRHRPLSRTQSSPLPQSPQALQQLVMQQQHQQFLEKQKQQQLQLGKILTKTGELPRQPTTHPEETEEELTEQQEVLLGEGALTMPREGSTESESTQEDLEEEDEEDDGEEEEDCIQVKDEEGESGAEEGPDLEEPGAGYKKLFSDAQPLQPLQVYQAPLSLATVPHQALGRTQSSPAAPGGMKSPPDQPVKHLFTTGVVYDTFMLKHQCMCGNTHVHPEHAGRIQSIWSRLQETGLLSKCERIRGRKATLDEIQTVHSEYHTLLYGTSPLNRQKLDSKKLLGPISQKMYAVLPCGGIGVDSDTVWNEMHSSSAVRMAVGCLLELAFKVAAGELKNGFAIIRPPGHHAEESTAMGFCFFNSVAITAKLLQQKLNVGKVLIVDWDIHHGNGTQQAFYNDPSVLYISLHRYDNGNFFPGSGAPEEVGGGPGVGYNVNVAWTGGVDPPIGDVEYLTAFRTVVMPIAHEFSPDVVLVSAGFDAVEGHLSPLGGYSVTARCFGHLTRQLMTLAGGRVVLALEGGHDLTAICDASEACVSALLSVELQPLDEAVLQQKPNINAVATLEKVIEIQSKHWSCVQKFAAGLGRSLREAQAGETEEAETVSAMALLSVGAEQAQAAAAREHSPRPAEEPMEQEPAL

## Br.CN(C)C(SCCCCCCn1cnc2c(-c3cc(Br)c(Br)[nH]3)nccc21)=[N+](C)C.[Cl-] [Compound 8a]
[1]
  IC50: > 200 µM
[2]
  IC50: > 200 µM
[3]
  IC50: > 200 µM
[4]
  IC50: > 200 µM
[5]
  acetylation levels of H3K9: significantly increased
[6]
  IC50: 41 µM
[7]
  glucose uptake: no significant effect
[8]
  blood glucose and insulin concentration: no significant difference
[9]
  Kd: 16 ± 0.313 µM

From PMC10403574, “Discovery of a pyrrole-pyridinimidazole derivative as novel SIRT6 inhibitor for sensitizing pancreatic cancer to gemcitabine” (Cell Death & Disease, 2023)
